# Experimental data: patent US20090312423A1, “THERAPEUTIC TREATMENT FOR LUNG CONDITIONS” (Vanderbilt University, priority 2008, published 2009)
# Assays:
# [1] = tested on: chronically hypoxic piglets; test: In vivo hemodynamics in newborn piglets exposed to 10 days of chronic hypoxia
# Source text: A total of 17 hypoxic and 17 control piglets were studied. Control animals were studied on the day of arrival from the farm at 12 days of age. The hypoxic pigs (2 days old) were placed in a normobaric hypoxic chamber for 10 to 11 days. Normobaric hypoxia was provided using compressed air and nitrogen to create inspired oxygen of 8-11% (PO2 60-72 Torr) and CO2 was maintained at 3-6 Torr by absorption with soda lime. The animals were monitored with daily weights and physical exam twice daily. They were fed ad lib with sow milk replacer from a feeding device in the cage.
# Six of the seventeen hypoxic piglets were supplemented with oral L-citrulline starting on the first day of the hypoxic exposure. L-citrulline supplementation was provided at a dose of 0.13-gm/kilogram body weight twice a day using a syringe to deliver the dose orally. If it appeared to study personnel that the piglet had not ingested the majority of a dose, it was repeated. L-citrulline was mixed using a preparation (Sigma Pharmaceuticals, St. Louis, Mo., United States of America, 98% purity) at a concentration of 0.13 grams per milliliter of distilled water and when completely dissolved passing this solution through a 0.20 Micron filter.
# In vivo hemodynamics were measured in 6 of the control piglets and all of the hypoxic piglets. […] Pulmonary artery pressure, left ventricular end diastolic pressure, and cardiac output were measured. Cardiac output was measured by a thermodilution technique (model 9520 thermodilution cardiac output computer, Edwards Laboratory, Irvine, Calif., United States of America) using a thermistor in the aortic arch and the left ventricle catheter as an injection port. Cardiac output was measured at end expiration as the mean of three injections of 3 ml of normal saline (0° C.). Exhaled NO was measured as described below. […]
# Pulmonary vascular resistance was calculated from the in vivo hemodynamic measurements: (Pulmonary arterial pressure−left ventricular end diastolic pressure)÷(Cardiac output/body weight). […]
# exhaled NO = test: Exhaled nitric oxide measurement in anesthetized piglets; type: in vivo; settings: FIG. 5; p-value 0.032; not different from control (p=0.124)
# Method: In vivo hemodynamics were measured in 6 of the control piglets and all of the hypoxic piglets. For these measurements, the animals were weighed and then preanesthetized with Ketamine (15 mg/kg) and Acepromazine (2 mg/kg) intramuscularly. A tracheostomy, venous and arterial catheters, and thermistor were then placed as previously described using intravenous pentobarbital for sedation. Fike, C. D. et al., J Appl Physiol (2000) 88:1797-1803. Pulmonary artery pressure, left ventricular end diastolic pressure, and cardiac output were measured. Cardiac output was measured by a thermodilution technique (model 9520 thermodilution cardiac output computer, Edwards Laboratory, Irvine, Calif., United States of America) using a thermistor in the aortic arch and the left ventricle catheter as an injection port. Cardiac output was measured at end expiration as the mean of three injections of 3 ml of normal saline (0° C.). Exhaled NO was measured as described below. […]
# For exhaled NO measurement in anesthetized animals, expiratory gas was sampled two to three times for 3 minute periods each and passed through a chemiluminescence analyzer (model 270B NOA; Sievers, Boulder, Colo., United States of America) to measure NO concentration as previously described. […] Exhaled NO production (nmol/min) was calculated using minute ventilation and the measured exhaled NO concentration.
# nitrite/nitrate (NOx-) = test: Isolated lung perfusion, perfusate NOx- measurement; type: in vivo, piglets; settings: FIG. 6; p=0.04; no difference from normoxic controls
# Method: The lungs were isolated and perfused in situ with a Krebs Ringer bicarbonate (KRB) solution containing 5% dextran, mol. wt. 70,000, at 37° C. and ventilated with a normoxic gas mixture (21% O2 and 5% CO2) as previously described. Fike, C. D. et al., J Appl Physiol (2000) 88:1797-1803. The lungs were perfused for 30-60 min until a stable pulmonary arterial pressure was achieved. Perfusate samples (1 ml) were then removed from the left atrial cannula every 10 min for a 60-minute period. The perfusate samples were centrifuged, and the supernatant was stored at −80° C. for future analysis of nitrite/nitrate (NOx^−) concentrations as described below. At the end of the perfusion, the volume of perfusate remaining in the circuit and reservoir was measured. […]
# The perfusate NOx^− […] was calculated for each collection time by multiplying the perfusate concentration of NOx^− at that sample collection time by the volume of the system (perfusion circuit+reservoir) at the sample collection time plus the amount of NOx^− removed with all previous samples. The rate of NOx^− production was determined from the slope of a linear regression line fit to the amount of NOx^− in the perfusate versus time for the first 60 minutes of the collection period.
# [2] = Plasma amino acid measurements; type: in vivo, piglets; settings: for Plasma Citrulline: mean ± SEM
# Method: On the day of hemodynamic measurements and/or lung perfusion study, for control and both L-citrulline treated and untreated chronic hypoxic animals, blood was drawn prior to starting the study and the plasma frozen at -80 degrees for later determination of amino acid levels. For the L-citrulline treated hypoxic animals, the time of obtaining the blood sample was approximately 12 hours after the last dose of L-citrulline so was a trough level. In some of the L-citrulline treated animals (n=3), after blood sampling for a trough level, a dose of L-citrulline was given via nasogastric tube. Following this dose, blood samples were drawn every 30 minutes for 90 minutes (the length of the in vivo studies). All samples were spun, the plasma collected and frozen at -80 degrees for amino acid analysis. Concentrations of plasma citrulline and arginine were determined by amino-acid analysis on protein-free extracts. Amino acids were separated by cation-exchange chromatography using a Hitachi […] amino acid analyzer (Hitachi USA, San Jose, Calif., United States of America). Calibration of the analyzer was performed before testing of piglet samples.
smiles,measurement,setting,value
NC(=O)NCCC[C@H](N)C(=O)O [L-citrulline],pulmonary artery pressure vs untreated hypoxic animals,"[1]; FIG. 3, p-value of 0.01, not different from normoxic controls (p=0.08)",significantly lower
same,calculated pulmonary vascular resistance,"[1]; FIG. 4, L-citrulline treated hypoxic animals, significantly lower than untreated hypoxic (p-value of 0.001)",0.071±0.003
same,development of pulmonary hypertension,"[1]; newborn piglets exposed to 10 days of chronic hypoxia, oral supplementation",ameliorates the development of pulmonary hypertension
same,exhaled NO output vs untreated hypoxic animals,exhaled NO,higher
same,NOx- accumulation rate in lung perfusate vs untreated hypoxic animals,nitrite/nitrate (NOx-),significantly higher
same,Plasma Citrulline,"[2]; 90 minutes after administration of L-citrulline dose, N = 3",219 ± 36
same,plasma L-citrulline level relative to untreated chronic hypoxic animals,"[2]; ninety minutes after a dose, p=0.001",almost twice
same,plasma arginine levels vs untreated hypoxic animals,[2]; regardless of the time the sample was drawn,not higher
same,Plasma Citrulline,"[2]; trough, approximately twelve hours after L-citrulline dose, N = 6",161 ± 5
